Source: US20040102622A1, “Modulation of hepatocyte growth factor receptor expression” (Isis Pharmaceuticals Inc., priority 2002, published 2004)

System: human hepatocyte growth factor receptor mRNA

Question: How did the “inhibition of human hepatocyte growth factor receptor expression” value (shortened to “inhibition”) turn out when “ISIS 155108: 2′-MOE gapmer, phosphorothioate backbone, sequence attctcgggacactaactga (antisense ATTCTCGGGACACTAACTGA; all phosphorothioate, sugars by position and methylation of C not given here; 2'-MOE gapmer)” was run?
Answer: Its value is “at least 35%”.

Question: “ISIS 155109: 2′-MOE gapmer, phosphorothioate backbone, sequence agctcgctgttcaatttcag (antisense AGCTCGCTGTTCAATTTCAG; all phosphorothioate, sugars by position and methylation of C not given here; 2'-MOE gapmer)” was tested. Which “inhibition” value did it give?
Answer: The value was “at least 35%”.

Question: With “ISIS 155110: 2′-MOE gapmer, phosphorothioate backbone, sequence tcgggacactaactgaattc (antisense TCGGGACACTAACTGAATTC; all phosphorothioate, sugars by position and methylation of C not given here; 2'-MOE gapmer)” as the substance, how does the “inhibition” value read?
Answer: The value was “at least 35%”.

Question: “ISIS 155111: 2′-MOE gapmer, phosphorothioate backbone, sequence gttcggcagaatctggcttg (antisense GTTCGGCAGAATCTGGCTTG; all phosphorothioate, sugars by position and methylation of C not given here; 2'-MOE gapmer)” was tested. Which “inhibition” value did it give?
Answer: Its value is “at least 35%”.

Question: With “ISIS 155112: 2′-MOE gapmer, phosphorothioate backbone, sequence taggagtcttctcccttgca (antisense TAGGAGTCTTCTCCCTTGCA; all phosphorothioate, sugars by position and methylation of C not given here; 2'-MOE gapmer)” as the substance, how does the “inhibition” value read?
Answer: The value was “at least 35%”.

Question: For “ISIS 155113: 2′-MOE gapmer, phosphorothioate backbone, sequence ctaatgagttgatcatcata (antisense CTAATGAGTTGATCATCATA; all phosphorothioate, sugars by position and methylation of C not given here; 2'-MOE gapmer)”, which “inhibition” value is on record?
Answer: Its value is “at least 35%”.

Question: Which “inhibition” value does the source give for “ISIS 155114: 2′-MOE gapmer, phosphorothioate backbone, sequence aattgttgctttcaaaggca (antisense AATTGTTGCTTTCAAAGGCA; all phosphorothioate, sugars by position and methylation of C not given here; 2'-MOE gapmer)” here?
Answer: The value was “at least 35%”.

Question: For “ISIS 155115: 2′-MOE gapmer, phosphorothioate backbone, sequence agttccttcctgcttcatgc (antisense AGTTCCTTCCTGCTTCATGC; all phosphorothioate, sugars by position and methylation of C not given here; 2'-MOE gapmer)”, which “inhibition” value is on record?
Answer: Its value is “at least 35%”.

Question: How did the “inhibition” value turn out when “ISIS 155116: 2′-MOE gapmer, phosphorothioate backbone, sequence aaatctttcatgatgattcc (antisense AAATCTTTCATGATGATTCC; all phosphorothioate, sugars by position and methylation of C not given here; 2'-MOE gapmer)” was run?
Answer: The value was “at least 35%”.

Question: Which “inhibition” value does the source give for “ISIS 155117: 2′-MOE gapmer, phosphorothioate backbone, sequence gtagattgcaggcagacaga (antisense GTAGATTGCAGGCAGACAGA; all phosphorothioate, sugars by position and methylation of C not given here; 2'-MOE gapmer)” here?
Answer: The value was “at least 35%”.

Question: How did the “inhibition” value turn out when “ISIS 155118: 2′-MOE gapmer, phosphorothioate backbone, sequence catccagcatacagtttctt (antisense CATCCAGCATACAGTTTCTT; all phosphorothioate, sugars by position and methylation of C not given here; 2'-MOE gapmer)” was run?
Answer: The value was “at least 35%”.

Question: How did the “inhibition” value turn out when “ISIS 155119: 2′-MOE gapmer, phosphorothioate backbone, sequence aagtatattaaacacttcct (antisense AAGTATATTAAACACTTCCT; all phosphorothioate, sugars by position and methylation of C not given here; 2'-MOE gapmer)” was run?
Answer: Its value is “at least 35%”.

Question: “ISIS 155120: 2′-MOE gapmer, phosphorothioate backbone, sequence gtgtcctattaaagcagtgc (antisense GTGTCCTATTAAAGCAGTGC; all phosphorothioate, sugars by position and methylation of C not given here; 2'-MOE gapmer)” was tested. Which “inhibition” value did it give?
Answer: Its value is “at least 35%”.

Question: How did the “inhibition” value turn out when “ISIS 155121: 2′-MOE gapmer, phosphorothioate backbone, sequence tgaaaggactttggctccca (antisense TGAAAGGACTTTGGCTCCCA; all phosphorothioate, sugars by position and methylation of C not given here; 2'-MOE gapmer)” was run?
Answer: Its value is “at least 35%”.

Question: How did the “inhibition” value turn out when “ISIS 155122: 2′-MOE gapmer, phosphorothioate backbone, sequence aagcctatccaaatgaggag (antisense AAGCCTATCCAAATGAGGAG; all phosphorothioate, sugars by position and methylation of C not given here; 2'-MOE gapmer)” was run?
Answer: The value was “at least 35%”.

Question: With “ISIS 155123: 2′-MOE gapmer, phosphorothioate backbone, sequence gcaaagctgtggtaaactct (antisense GCAAAGCTGTGGTAAACTCT; all phosphorothioate, sugars by position and methylation of C not given here; 2'-MOE gapmer)” as the substance, how does the “inhibition” value read?
Answer: Its value is “at least 35%”.

Question: How did the “inhibition” value turn out when “ISIS 155124: 2′-MOE gapmer, phosphorothioate backbone, sequence tatgatgtctcccagaagga (antisense TATGATGTCTCCCAGAAGGA; all phosphorothioate, sugars by position and methylation of C not given here; 2'-MOE gapmer)” was run?
Answer: Its value is “at least 35%”.

Question: For “ISIS 155125: 2′-MOE gapmer, phosphorothioate backbone, sequence ggaaactgatcttctggaaa (antisense GGAAACTGATCTTCTGGAAA; all phosphorothioate, sugars by position and methylation of C not given here; 2'-MOE gapmer)”, which “inhibition” value is on record?
Answer: Its value is “at least 35%”.

Question: With “ISIS 155126: 2′-MOE gapmer, phosphorothioate backbone, sequence ctgtgcatttcaatgtattc (antisense CTGTGCATTTCAATGTATTC; all phosphorothioate, sugars by position and methylation of C not given here; 2'-MOE gapmer)” as the substance, how does the “inhibition” value read?
Answer: Its value is “at least 35%”.

Question: How did the “inhibition” value turn out when “ISIS 155127: 2′-MOE gapmer, phosphorothioate backbone, sequence gatctggttgaactattact (antisense GATCTGGTTGAACTATTACT; all phosphorothioate, sugars by position and methylation of C not given here; 2'-MOE gapmer)” was run?
Answer: Its value is “at least 35%”.

Question: How did the “inhibition” value turn out when “ISIS 155128: 2′-MOE gapmer, phosphorothioate backbone, sequence actgtgaatttttcatccag (antisense ACTGTGAATTTTTCATCCAG; all phosphorothioate, sugars by position and methylation of C not given here; 2'-MOE gapmer)” was run?
Answer: Its value is “at least 35%”.

Question: With “ISIS 155129: 2′-MOE gapmer, phosphorothioate backbone, sequence gattgggtccgtaaaaatgc (antisense GATTGGGTCCGTAAAAATGC; all phosphorothioate, sugars by position and methylation of C not given here; 2'-MOE gapmer)” as the substance, how does the “inhibition” value read?
Answer: The value was “at least 35%”.

Question: “ISIS 155130: 2′-MOE gapmer, phosphorothioate backbone, sequence tctctgaactcaggtaaaac (antisense TCTCTGAACTCAGGTAAAAC; all phosphorothioate, sugars by position and methylation of C not given here; 2'-MOE gapmer)” was tested. Which “inhibition” value did it give?
Answer: Its value is “at least 35%”.

Question: Which “inhibition” value does the source give for “ISIS 155132: 2′-MOE gapmer, phosphorothioate backbone, sequence gattccctcggtcagaaatt (antisense GATTCCCTCGGTCAGAAATT; all phosphorothioate, sugars by position and methylation of C not given here; 2'-MOE gapmer)” here?
Answer: Its value is “at least 35%”.

Question: With “ISIS 155133: 2′-MOE gapmer, phosphorothioate backbone, sequence aaaccatttctgtagttggg (antisense AAACCATTTCTGTAGTTGGG; all phosphorothioate, sugars by position and methylation of C not given here; 2'-MOE gapmer)” as the substance, how does the “inhibition” value read?
Answer: Its value is “at least 35%”.

Question: For “ISIS 209521: 2′-MOE gapmer, phosphorothioate backbone, sequence ggaaccagtggagaagtcag (antisense GGAACCAGTGGAGAAGTCAG; all phosphorothioate, sugars by position and methylation of C not given here; 2'-MOE gapmer)”, which “inhibition” value is on record?
Answer: Its value is “at least 35%”.

Question: For “ISIS 209522: 2′-MOE gapmer, phosphorothioate backbone, sequence agaggtttatctttcggtgc (antisense AGAGGTTTATCTTTCGGTGC; all phosphorothioate, sugars by position and methylation of C not given here; 2'-MOE gapmer)”, which “inhibition” value is on record?
Answer: The value was “at least 35%”.
